The assay deals with T1, LPAAT-β (Homo sapiens, UniProt O15120).
T1 construct: the full-length human LPAAT-β cDNA was amplified by PCR; poly-histidine tag (from pFastBac HTc vector) (N); made in house; host or cells: Sf9 insect cells (baculovirus); membrane fraction used
T1 sequence (O15120 24-278): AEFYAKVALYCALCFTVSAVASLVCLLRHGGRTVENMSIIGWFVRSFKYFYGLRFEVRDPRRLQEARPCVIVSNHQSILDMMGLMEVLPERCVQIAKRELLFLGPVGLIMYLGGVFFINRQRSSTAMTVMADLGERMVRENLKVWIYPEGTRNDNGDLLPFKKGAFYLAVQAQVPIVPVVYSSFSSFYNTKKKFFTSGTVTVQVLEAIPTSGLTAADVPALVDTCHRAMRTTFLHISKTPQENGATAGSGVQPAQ
The assay is described as follows: LPAAT-β cell-free assay (colorimetric primary screen, radiometric/fluorescent TLC secondary assay). The format is biochemical. The conditions noted are these: Sf9 cell membrane overexpressing LPAAT-β. An excerpt:
A. Production of Recombinant LPAAT-β for Assays
For the construction of Baculovirus expression vectors, the full-length human LPAAT-β cDNA was amplified by PCR from the DNA template pCE9.LPAAT-β (West et al., DNA Cell Biol. 16:691-701 (1997)) using the primers 5′-[…] […] […] […]-3′ (olpb1F; SEQ ID NO:1) and 5′-[…] […] […]-3′ (olpb1R; SEQ ID NO:2). The ˜870 bp fragment generated was reamplified by PCR using the primers 5′[…] […] […] […] ATC-3′ (olpb2F; SEQ ID NO:3) and 5′-[…] […] […]-3′ (olpb1R; SEQ ID NO:2). The ˜890 bp fragment generated was then cleaved with Sal I and Xba I for insertion into pFastBac™ HTc vector (Life Technologies, Gaithersberg, Md.) between the Sal I and Xba I sites for the generation of the plasmid pFB.LPAAT-β. This plasmid was then transformed into E. coli DH10Bac™ (Life Technologies, Gaithersberg, Md.) for the generation of recombinant Bacmid DNA for transfection in HighFive (Invitrogen, San Diego, Calif.) or SF9 insect cells for the production of recombinant Baculovirus stocks using the protocol described in the Bac-to-Bac® Baculovirus Expression System (Life Technologies, Gaithersberg, Md.), a eukaryotic expression system for generating recombinant baculovirus through site-specific transposition in E. coli. Viral stocks harvested from the transfected cells can then be used to infect fresh insect cells for the subsequence expression of LPAAT-β fusion protein with a poly-histidine tag and a myc-epitope near its N-terminus. The membrane fraction from these Sf9 cells would be the source of LPAAT enzyme.
B. Preparation of Cell Membranes from Sf9 Cells
For the preparation of membranes from Sf9 Cells, all steps are performed on ice or at 4° C. Sf9 cell pellets (˜10^8 cells) were thawed and resuspended in 1-2 ml of buffer A (20 mM Hepes, pH 7.5, 1 mM DTT, 1 mM EDTA, 20% w/v glycerol, 1 mM Benzamidine, 1 μg/ml soybean trypsin inhibitor (SBTI), 1 μg/ml pepstatin A) w/o DTT but with 1 mM Pefabloc. The cells were lysed by sonication using a Branson Sonifier at output=2, duty cycle=2, 10 pulses each at 10s. with the tip of small sonicator probe submerged but not touching the walls. DTT was then added to 1 mM from a 1 M stock. The samples were centrifuged at 1500 rpm for 5 min. The low speed supernatant was saved and centrifuged (TLA 100.3 rotor, polycarbonate tubes, 2 ml/tube or 1.5 ml/tube minimum) at 100000×g for 1 hr. The high speed pellet was resuspend in Buffer A with a probe sonicator (10 pulses @ output #2 and duty cycle 20%) as a source of LPAAT enzyme.
C. Assay of LPAAT-β Activity
LPAAT-β catalyzes the transfer of an acyl group from a donor such as acyl-CoA to LPA. The transfer of the acyl group from acyl-CoA to LPA leads to the release of free CoA, which can be reacted with the thiol reagent, 5,5′-dithiobis(2-nitrobenzoic acid) (DTNB). The reaction between DTNB and the free sulfhydryl group from CoA generates a yellow-colored product, 3-carboxylato-4-nitrothiophenolate (CNP), that absorbs at 413 nm. LPAAT-β derived from Sf9 cell membrane overexpressing LPAAT-β were resuspended in HEPES saline buffer (20 mM HEPES pH 7.5, 150 mM NaCl), 1 mg/ml BSA and 72 μl aliquots were distributed into 96-well microtiter plates. 8 μl of compound of interest at 200 μM dissolved in 100% DMSO was added into each well. 20 μl of 1 mM 18:1-CoA and 1 mM sn-1-18:1 lysoPA was then added to each well to initiate the reaction and allowed to run at room temperature for 25 min. 100 μl of 1 mM DTNB in 100% ethanol was then added to each well to quench the reaction and for color development. The absorbance at 405 nm, measured using a spectrophotometer plate reader, is proportional to the activity of LPAAT-β in the sample. This colorimetric assay was used for the high throughput screening of LPAAT inhibitors.

Structures are written as SMILES.

A word on the IC50: it is the concentration needed to halve the response being measured. Read a high IC50 as weaker potency.

As to `Cc1ccc(Cl)cc1-c1nc(N)nc(Nc2ccc(CCl)cc2)n1` [Example 88, N-(4-Chloromethyl-phenyl)-6-(5-chloro-2-methyl-phenyl)-[1,3,5]triazine-2,4-diamine], it took 180 nM to reach half-maximal inhibition (IC50).

`CNc1cc(Nc2nc(N)nc(-c3cc(Cl)ccc3C)n2)ccc1Cl` [Example 34, N-(4-Chloro-3-methylamino-phenyl)-6-(5-chloro-2-methyl-phenyl)-[1,3,5]triazine-2,4-diamine]: the half-inhibitory concentration (IC50) worked out at 160 nM.

The compound `Nc1nc(Nc2ccc(Cl)cc2)nc(-c2cccc(Cl)c2)n1` [Example 16, N-(4-chlorophenyl)-6-(3-chlorophenyl)-[1,3,5]triazine-2,4-diamine] returned a half-inhibitory concentration (IC50) of 800 nM.

`Cc1ccc(Cl)cc1-c1nc(N)nc(Nc2ccc(CF)cc2)n1` [Example 68, 6-(5-Chloro-2-methyl-phenyl)-N-(4-fluoromethyl-phenyl)-[1,3,5]-triazine-2,4-diamine] yielded an IC50 of 130 nM.

On to `CN(C)c1ccc(Cl)cc1-c1nc(N)nc(Nc2ccc(Cl)cc2)n1` [Example 47, 6-(5-Chloro-2-dimethylaminophenyl)-N-(4-chlorophenyl)-[1,3,5]triazine-2,4-diamine], for which the 50% inhibitory concentration (IC50) is 140 nM.

`Cc1ccc(Cl)cc1-c1ncnc(Nc2ccc(Cl)cc2)n1` [Example 33, [6-(5-Chloro-2-methyl-phenyl)-[1,3,5]triazin-4-yl]-(4-chloro-phenyl)-amine]: the concentration for half-maximal inhibition (IC50) stood at 240 nM.

Compound `COc1ccc(Cl)cc1-c1nc(N)nc(Nc2ccc([N+](=O)[O-])cc2)n1` [Example 3, 6-(5-Chloro-2-methoxyphenyl)-N-(4-nitrophenyl)-[1,3,5]triazine-2,4-diamine] gave an IC50 of 22 nM.

On to `CCOc1ccc(Cl)cc1-c1nc(N)nc(Nc2ccc3c(c2)OCO3)n1` [Example 55, N-Benzo[1.3]dioxol-5-yl-6-(5-chloro-2-ethoxy-phenyl)[1,3,5]triazine-2,4-diamine], for which the concentration for half-maximal inhibition (IC50) is 800 nM.

As for `Cc1nc(Nc2ccc3cn[nH]c3c2)nc(-c2cc(Cl)ccc2C)n1` [Example 22, [4-(5-Chloro-2-methyl-phenyl)-6-methyl-[1,3,5]triazin-2-yl]-(1H-indazol-6-yl)-amine], the half-maximal inhibitory concentration (IC50) came out at 13 nM.

Regarding `Nc1nc(Nc2ccc(Br)cc2)nc(-c2cc(Cl)ccc2Cl)n1` [Example 12, N-2-(4-Bromophenyl)-6-(2,5-dichlorophenyl)-[1,3,5]triazine-2,4-diamine], the midpoint of inhibition, the IC50, lay at 70 nM.

Regarding `Cc1ccc(Cl)c(-c2nc(N)nc(Nc3ccc(Cl)cc3)n2)c1` [Example 83, 6-(2-chloro-5-methyl-phenyl)-N-(4-chloro-phenyl)-[1,3,5]triazine-2,4-diamine], the IC50 was 180 nM.

The compound `Cc1ccc(Cl)cc1-c1nc(N)nc(Nc2ccc3c(c2)OCO3)n1` [Example 19, N-Benzo[1.3]dioxol-5-yl-6-(5-chloro-2-methyl-phenyl)-[1,3,5]triazine-2,4-diamine] gave an IC50 of 200 nM.

Regarding `Nc1nc(Nc2ccc(Cl)cc2)nc(-c2cc(C(F)(F)F)ccc2Cl)n1` [Example 81, N-(4-Chloro-phenyl)-6-(2-chloro-5-trifluoromethyl-phenyl)-[1,3,5]triazine-2,4-diamine], 100 nM corresponded to half-maximal inhibition (IC50).

`Cc1ccc(Cl)cc1-c1nc(N)nc(Nc2ccc3c(c2)CCC3)n1` [Example 37, 6-(5-Chloro-2-methyl-phenyl)-N-indan-5-yl-[1,3,5]triazine-2,4-diamine] yielded a 50% inhibitory concentration (IC50) of 590 nM.

In turn, `CCOc1ccc(Cl)cc1-c1nc(N)nc(Nc2ccc(CO)cc2)n1` [Example 53, {4-[4-Amino-6-(5-chloro-2-ethoxy-phenyl) [1,3,5]triazin-2-ylamino]-phenyl}-methanol] had an IC50 of 1800 nM.

The compound `Cc1ccc(Cl)cc1-c1nc(N)nc(Nc2ccc(CC(=O)O)cc2)n1` [Example 60, {4-[4-Amino-6-(5-chloro-2-methyl-phenyl)-[1,3,5]triazin-2-ylamino]-phenyl}-acetic acid] displayed an IC50 of 1300 nM.

As for `C#Cc1ccc(Nc2nc(N)nc(-c3cc(Cl)ccc3C)n2)cc1` [Example 42, 6-(5-Chloro-2-methyl-phenyl)-N-(4-ethynyl-phenyl)-[1,3,5]triazine-2,4-diamine], the IC50 worked out at 280 nM.

For the compound `CCOc1ccc(Cl)cc1-c1nc(N)nc(Nc2ccc(Cl)cc2)n1` [Example 7, 6-(5-Chloro-2-ethoxyphenyl)-N-(4-Chlorophenyl)-[1,3,5]triazine-2,4-diamine], the half-inhibitory concentration (IC50) is 140 nM.

As for `Cc1ccc(Nc2nc(N)nc(-c3cc(Cl)ccc3C)n2)cc1` [Example 39, 6-(5-Chloro-2-methyl-phenyl)-N-p-tolyl-[1,3,5]triazine-2,4-diamine], 320 nM corresponded to half-maximal inhibition (IC50).

For `C=Cc1ccc(Nc2nc(N)nc(-c3cc(Cl)ccc3C)n2)cc1` [Example 67, 6-(5-Chloro-2-methyl-phenyl)-N-(4-vinyl-phenyl)-[1,3,5]triazine-2,4-diamine], the half-inhibitory concentration (IC50) is 710 nM.

As for `Cc1ccc(Nc2nc(N)nc(-c3cc(Cl)ccc3C)n2)cc1C` [Example 59, 6-(5-Chloro-2-methyl-phenyl)-N-(3,4-dimethyl-phenyl)-[1,3,5]triazine-2,4-diamine], the IC50 amounted to 400 nM.

Compound `CCOc1ccc(Cl)cc1-c1nc(N)nc(Nc2ccc(C)cc2)n1` [Example 61, 6-(5-Chloro-2-ethoxyphenyl)-N-p-tolyl-[1,3,5]triazine-2,4-diamine] came in with an IC50 of 2300 nM.

Take `Cc1ccc(Cl)cc1-c1nc(Cl)nc(Nc2ccc([N+](=O)[O-])cc2)n1` [Example 30, [6-(5-Chloro-2-methyl-phenyl)-2-chloro-3-yl-[1,3,5]-triazin-4-yl]-(4-nitro-phenyl)-amine]: it took 10 nM to reach half-maximal inhibition (IC50).

Compound `Cc1ccc(Cl)cc1-c1nc(N)nc(Nc2ccc(COC(=O)CCC(=O)O)cc2)n1` [Example 70] displayed a concentration for half-maximal inhibition (IC50) of 830 nM.

In turn, `CCc1ccc(Nc2nc(N)nc(-c3cc(Cl)ccc3C)n2)cc1` [Example 38, 6-(5-Chloro-2-methyl-phenyl)-N-(4-ethyl-phenyl)-[1,3,5]triazine-2,4-diamine] displayed a 50% inhibitory concentration (IC50) of 1000 nM.

Take `CCc1nc(Nc2ccc(Br)cc2)nc(-c2cc(Cl)ccc2C)n1` [Example 24]: the midpoint of inhibition, the IC50, lay at 700 nM.

Compound `CCc1cccc(Nc2nc(N)nc(-c3cc(Cl)ccc3C)n2)c1` [Example 66, 6-(5-Chloro-2-methyl-phenyl)-N-(3-ethyl-phenyl)-[1,3,5]triazine-2,4-diamine] gave an IC50 of 750 nM.

Consider `CCOc1ccc(Cl)cc1-c1nc(N)nc(Nc2ccc3cn[nH]c3c2)n1` [Example 51, 6-(5-Chloro-2-ethoxy-phenyl)-N-(1H-indazol-6-yl)-[1,3,5]triazine-2,4-diamine], for which the midpoint of inhibition, the IC50, lay at 600 nM.

In the case of `NCc1nc(Nc2ccc(Br)cc2)nc(-c2cc(Cl)ccc2Cl)n1` [Example 27], it took 2700 nM to reach half-maximal inhibition (IC50).

In the case of `Nc1nc(Nc2ccc(Cl)cc2)nc(-c2cc(Cl)ccc2Cl)n1` [Example 4, 6-(2,5-Dichlorophenyl)-N-(4-chlorophenyl)-[1,3,5]triazine-2,4-diamine], the IC50 stood at 50 nM.

The record behind these values is US7618968B2, “Aryl triazines as LPAAT-β inhibitors and uses thereof” (Cell Therapeutics, Inc., priority 2001, dated 2009).
